The subject of test [1] is K. pneumoniae MXX1232. Kind of test: Antibacterial activity, MIC, resistant strain (Table 4). Type of test: cell-based. The settings on record: Klebsiella pneumoniae, MXX1232; resistant K. pneumoniae MMX1232, multi-drug resistant clinical isolate; read-out: MIC, MMX1232. In outline: (§1)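 Broth microdilution; MIC (μg/mL) = lowest concentration with no macroscopically visible growth. Resistant strains: multi-drug resistant clinical isolates.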

The test system of test [2] is A. baumannii MXX2240. The description is as above. Type of test: cell-based. The settings on record: Acinetobacter baumannii, MXX2240; resistant A. baumannii MMX2240, multi-drug resistant clinical isolate; read-out: MIC, MMX2240. The gist of the method:
as §1

Test [3] relates to Haemophilus influenzae (H. influenzae) 49247. As to the kind of experiment: Antibacterial activity, MIC (Table 6). Type of test: cell-based. In outline:
(§2)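 Values are minimum inhibitory concentrations in μg/mL, determined by microbroth dilution as the lowest concentration with no macroscopically visible growth.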

Test [4] concerns Neisseria meningitidis (N. meningitidis) 13090. As to the kind of experiment: Antibacterial activity, MIC (Table 8). Type of test: cell-based. In outline:
as §2

Test [5] relates to Klebsiella pneumoniae (K. pneumoniae) 35657. As to the kind of experiment: Antibacterial activity, MIC (Table 4). The settings on record: K. pneumoniae 35657, read-out: MIC, 35657. Type of test: cell-based. The gist of the method:
as §1

Test [6] relates to Acinetobacter baumannii (A. baumannii) BAA747. As to the kind of experiment: Antibacterial activity, MIC (Table 4). Type of test: cell-based. The settings on record: A. baumannii BAA747, read-out: MIC, BAA747. The gist of the method: as §1
In test [7] the test system is E. coli 25922. As to the kind of experiment: Antibacterial activity, microbroth dilution MIC (Table 1). Type of test: cell-based, Escherichia coli. The settings on record: Escherichia coli; microbroth dilution; control Gram-negative E. coli 25922 strain; read-out: MIC, 25922. The gist of the method: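 Each strain is exposed to test compound in a microbroth dilution series; visible growth is scored macroscopically, and the lowest growth-free concentration is recorded as MIC in μg/mL.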
Background: In broth dilution the organism is exposed to a series of concentrations in liquid medium.

In test [8] the test system is Pseudomonas aeruginosa (P. aeruginosa) 27853. Kind of test: Antibacterial activity, MIC (Table 5). The following applies: P. aeruginosa 27853, read-out: MIC, 27853. Type of test: cell-based. The gist of the method: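 Using a microbroth dilution format, the minimum inhibitory concentration was recorded as the lowest tested concentration that stopped visible bacterial growth, expressed in μg/mL.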

Test [9] concerns E. coli LZ3111. As to the kind of experiment: Antibacterial activity, MIC, quinolone resistant strain (Table 2). Type of test: cell-based. The settings on record: Escherichia coli, LZ3111, read-out: MIC LZ3111. The gist of the method:
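Growth inhibition assessed by serial drug dilution in broth; endpoint was absence of macroscopically visible growth, reported as MIC, μg/mL.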

The subject of test [10] is Moraxella catarrhalis (M. catarrhalis) 25238. Kind of test: Antibacterial activity, MIC (Table 7). Type of test: cell-based. In outline:
as §2

Test [11] has as its system Escherichia coli (E. coli) BAS849. Kind of test: Antibacterial activity, microbroth dilution MIC (Table 1). Type of test: cell-based. The settings on record: microbroth dilution, super sensitive Gram-negative E. coli BAS849, read-out: MIC, BAS849. In outline: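 Using broth microdilution, MIC endpoints (μg/mL) mark where visible growth no longer appears; the panel spans sensitive and control Gram-negative strains plus a Gram-positive strain.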

The test system of test [12] is Staphylococcus aureus (S. aureus) 29213. The description is as above. The settings on record: microbroth dilution, Gram-positive S. aureus 29213, read-out: MIC, 29213. Type of test: cell-based. The gist of the method:
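Potency is reported as minimum inhibitory concentration in μg/mL, determined by broth microdilution as the lowest level of compound that stops growth visible to the eye.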

The test system of test [13] is E. coli ELZ4000. As to the kind of experiment: Antibacterial activity, MIC, multi-drug resistant clinical isolate (Table 3). The settings on record: Escherichia coli, ELZ4000, read-out: MIC ELZ4000. Type of test: cell-based. The gist of the method:
(§3)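 Values derive from a microbroth dilution method, taking as MIC (μg/mL) the lowest tested concentration without macroscopically visible growth.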

For test [14], the system named is E. coli ELZ4251. Described as above. Type of test: cell-based. The settings on record: Escherichia coli. In outline:
as §3

In patent publication US9409905B2, “Antibacterial compounds and methods for use” (PTC THERAPEUTICS, INC., priority 2011, dated 2016) one finds MIC data, which are given here for 4 compounds.

Values after ≈ are worked out from the molar mass of the structure shown.

Turning to `CCc1c(-c2ccc3c(c2)cc(CNC2(C)CCC2)n3C)[nH]c(=O)c(C(=O)O)c1O.Cl` [Cpd 245, 5-ethyl-4-hydroxy-6-(1-methyl-2-((1-methylcyclobutylamino)methyl)-1H-indol-5-yl)-2-oxo-1,2-dihydropyridine-3-carboxylic acid hydrochloride], the MIC was 12.5 to 150 µg/mL in test [1]; 1 to 3.5 µg/mL in [2]; below 1 µg/mL in test [3]; below 1 µg/mL in [4]; below 1 µg/mL in test [5]; below 1 µg/mL in test [6]. The MIC is below 1 µg/mL in test [7]; 3.5 to 12.5 µg/mL in test [8]; 1 to 3.5 µg/mL in test [9]; below 1 µg/mL in test [10]; below 1 µg/mL in test [11]; 3.5 to 12.5 µg/mL in test [12]. Further, the MIC was in the range of 3.5 to 12.5 µg/mL in test [13] and 1 to 3.5 µg/mL in [14].

For the compound `CCc1c(-c2ccc3c(c2)cc(CN2CCC(C)CC2)n3C)[nH]c(=O)c(C(=O)O)c1O` [Cpd 247, 5-ethyl-4-hydroxy-6-(1-methyl-2-((4-methylpiperidin-1-yl)methyl)-1H-indol-5-yl)-2-oxo-1,2-dihydropyridine-3-carboxylic acid], the MIC in test [1] was 12.5 to 150 µg/mL (≈ 29.5 to 354 µM); in test [2] it was 1 to 3.5 µg/mL (≈ 2.36 to 8.26 µM); in [3], 1 to 3.5 µg/mL (≈ 2.36 to 8.26 µM); in test [4], below 1 µg/mL; in [5], 1 to 3.5 µg/mL (≈ 2.36 to 8.26 µM); in [6], 1 to 3.5 µg/mL (≈ 2.36 to 8.26 µM). Besides, the MIC is below 1 µg/mL in test [7]; 12.5 to 150 µg/mL (≈ 29.5 to 354 µM) in test [8]; 3.5 to 12.5 µg/mL (≈ 8.26 to 29.5 µM) in test [9]; below 1 µg/mL in test [10]; below 1 µg/mL in test [11]; 3.5 to 12.5 µg/mL (≈ 8.26 to 29.5 µM) in test [12]. Besides, the MIC in [13] and in test [14] was 12.5 to 150 µg/mL (≈ 29.5 to 354 µM) each time.

For `CCc1c(-c2ccc3c(c2)cc(CN2CCC(N(C)C)CC2)n3C)[nH]c(=O)c(C(=O)O)c1O` [Cpd 248, 6-(2-((4-(dimethylamino)piperidin-1-yl)methyl)-1-methyl-1H-indol-5-yl)-5-ethyl-4-hydroxy-2-oxo-1,2-dihydropyridine-3-carboxylic acid], the MIC was 12.5 to 150 µg/mL (≈ 27.6 to 331 µM) in test [1]; 12.5 to 150 µg/mL (≈ 27.6 to 331 µM) in test [2]; below 1 µg/mL in test [3]; below 1 µg/mL in test [4]; 1 to 3.5 µg/mL (≈ 2.21 to 7.73 µM) in [5]; 1 to 3.5 µg/mL (≈ 2.21 to 7.73 µM) in test [6]. Also, the MIC is below 1 µg/mL in test [7]; 12.5 to 150 µg/mL (≈ 27.6 to 331 µM) in test [8]; 3.5 to 12.5 µg/mL (≈ 7.73 to 27.6 µM) in test [9]; 1 to 3.5 µg/mL (≈ 2.21 to 7.73 µM) in test [10]; below 1 µg/mL in test [11]; 3.5 to 12.5 µg/mL (≈ 7.73 to 27.6 µM) in test [12]. The MIC in [13] and in test [14] was 12.5 to 150 µg/mL (≈ 27.6 to 331 µM) each time.

Turning to `CCc1c(-c2ccc3c(c2)cc(CN2CCCC(N(C)C)C2)n3C)[nH]c(=O)c(C(=O)O)c1O` (centres unmarked) [Cpd 250, 6-(2-((3-(dimethylamino)piperidin-1-yl)methyl)-1-methyl-1H-indol-5-yl)-5-ethyl-4-hydroxy-2-oxo-1,2-dihydropyridine-3-carboxylic acid], the MIC in [1] was 12.5 to 150 µg/mL (≈ 27.6 to 331 µM); in [2] it was 12.5 to 150 µg/mL (≈ 27.6 to 331 µM); in [3], 3.5 to 12.5 µg/mL (≈ 7.73 to 27.6 µM); in test [4], below 1 µg/mL; in test [5], 3.5 to 12.5 µg/mL (≈ 7.73 to 27.6 µM); in [6], 3.5 to 12.5 µg/mL (≈ 7.73 to 27.6 µM). For the same compound, the MIC in test [7] is 1 to 3.5 µg/mL (≈ 2.21 to 7.73 µM); in test [8] it was 12.5 to 150 µg/mL (≈ 27.6 to 331 µM); in [9] it was 3.5 to 12.5 µg/mL (≈ 7.73 to 27.6 µM); in [10], 1 to 3.5 µg/mL (≈ 2.21 to 7.73 µM); in test [11], below 1 µg/mL; in test [12], 3.5 to 12.5 µg/mL (≈ 7.73 to 27.6 µM). The MIC in test [13] and in [14] was 12.5 to 150 µg/mL (≈ 27.6 to 331 µM) throughout.
